Assay results published in US4585741A, “Method of assay for vitamin D metabolites” (priority 1983, dated 1986).

Assays:
[1] = test system: monoclonal antibody B3A1, raised in mice against bovine serum albumin-derivatized calcitroic acid
Experimental: Bound tracer is separated from free by second antibody precipitation.
(§1) Monoclonal antibodies binding calcitroic acid were detected in culture supernatants by a radioimmunoassay in which supernatants were exposed to microtiter plates coated with a calcitroic acid-egg albumin conjugate.
Radioligand was added after 1 hr pre-incubation in displacement assays; otherwise it was added immediately. After incubation for 18 hours, 10λ of rabbit anti-mouse Fab' (unrestricted gift of Dr. Judith Kapp-Pierce, Department of Pathology, Jewish Hospital of St. Louis and Washington University School of Medicine) was added with carrier mouse IgG and tubes were incubated for another 45 minutes at 4°. Alternatively, 20 λ of a partially purified preparation of carrier mouse IgG was added to the assay mixture. Then 40 λ of purified preparation of rabbit antimouse IgG was added and the mixture incubated for 4 hours at 4° C. […] After centrifugation at 1000×g for 20 minutes, the supernatants were aspirated, the pellets suspended in Budget Solve (Research Products International, Mount Prospect, Ill.) and their radioactivity determined in a Beckman 7000 Scintillation Counter (Beckman Instruments Company, Palo Alto, Calif.).

[2] = test system: monoclonal antibody B2B4, raised in mice against bovine serum albumin-derivatized calcitroic acid; settings: for concentration displacing half of the reversibly bound 3H-1,25-(OH)2 D3: monoclonal antibody b2b4, 18 h
Experimental: as §1
Radioligand was added after 1 hr pre-incubation in displacement assays; otherwise it was added immediately. […] Alternatively, 20 λ of a partially purified preparation of carrier mouse IgG was added to the assay mixture. Then 40 λ of purified preparation of rabbit antimouse IgG was added and the mixture incubated for 4 hours at 4° C. […] After centrifugation at 1000×g for 20 minutes, the supernatants were aspirated, the pellets suspended in Budget Solve (Research Products International, Mount Prospect, Ill.) and their radioactivity determined in a Beckman 7000 Scintillation Counter (Beckman Instruments Company, Palo Alto, Calif.).
For sucrose density gradient analysis, 350 λ of assay mixture or supernatant after immunoprecipitation was layered on a linear 5-20% sucrose gradient and centrifuged at 100,000×g for 17 hours. Molecular markers, human gamma globulin (16 mg/ml assay buffer) (Calbiochem-Behring, La Jolla, Calif.) and BSA (12 mg/ml assay buffer) were centrifuged identically. Fractions were collected through a bottom puncture apparatus and their radioactivity assayed.

| KD of calcitriol less than the KD of this analog by [1] | recognition by the antibody ([1]; at concentrations as great as 100 ng/ml) | concentration displacing half of the reversibly bound 3H-1,25-(OH)2 D3 [2] | SMILES | displacement of radioligand from B2B4 (sucrose gradient) ([2]; 1 ng/ml of 1,25-(OH)2 D3 added prior to centrifugation, data not shown) |
| --- | --- | --- | --- | --- |
| about 41/2 | does not recognize | 0.048 ng/mL | C=C1CC[C@H](O)C/C1=C/C=C1\CCC[C@]2(C)[C@@H]([C@H](C)CCC(O)C(C)(C)O)CC[C@@H]12 (stereo partly drawn) [24,25-(OH)2 D3, 24,25-dihydroxycholecalciferol] |  |
|  |  |  | C=C1/C(=C\C=C2/CCC[C@]3(C)[C@@H]([C@H](C)CCCC(C)(C)O)CC[C@@H]23)C[C@@H](O)C[C@@H]1O [1,25-(OH)2 D3, 1,25-dihydroxycholecalciferol] | almost completely displaced |
| more than 6 orders of magnitude |  | 0.068 ng/mL | C=C1CC[C@H](O)C/C1=C/C=C1\CCC[C@]2(C)[C@@H]([C@H](C)CCCC(C)(C)O)CC[C@@H]12 [25-OHD3, 25-hydroxycholecalciferol] |  |
